Experimental data published in PubChem BioAssay AID1963836 (Molecular Pharmacology Branch, DTP, NCI, 2024).

System: 857933-349-R-J2-PDC complex spheroid viability
Test: Anticancer human tumor 857933-349-R-J2-PDC patient-derived colon adenocarcinoma cell line growth inhibition [POLQ]
Details: for IC50: curve of first compound; for viability, T/C: stronger effect = lower value
Method in brief: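 Three-cell-type spheroids modelling solid tumor plus stroma served as the readout system; POL inhibitors were tested individually and in combination, concentration ranges set by clinical Cmax where known.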

[1] = second compound 0.0316 µM, first compound 0.0316 µM
[2] = second compound 0.0316 µM, first compound 0.1 µM
[3] = second compound 0.0316 µM, first compound 0.316 µM
[4] = second compound 0.0316 µM, first compound 1 µM
[5] = second compound 0.0316 µM, first compound 3.16 µM
[6] = second compound 0.0316 µM, first compound 10 µM
[7] = second compound 0.1 µM, first compound 0.0316 µM
[8] = second compound 0.1 µM, first compound 0.1 µM
[9] = second compound 0.1 µM, first compound 0.316 µM
[10] = second compound 0.1 µM, first compound 1 µM
[11] = second compound 0.1 µM, first compound 3.16 µM
[12] = second compound 0.1 µM, first compound 10 µM
[13] = second compound 0.316 µM, first compound 0.0316 µM
[14] = second compound 0.316 µM, first compound 0.1 µM
[15] = second compound 0.316 µM, first compound 0.316 µM
[16] = second compound 0.316 µM, first compound 1 µM
[17] = second compound 0.316 µM, first compound 3.16 µM
[18] = second compound 0.316 µM, first compound 10 µM
[19] = second compound 1 µM, first compound 0.0316 µM
[20] = second compound 1 µM, first compound 0.1 µM
[21] = second compound 1 µM, first compound 0.316 µM
[22] = second compound 1 µM, first compound 1 µM
[23] = second compound 1 µM, first compound 3.16 µM
[24] = second compound 1 µM, first compound 10 µM
[25] = second compound 3.16 µM, first compound 0.0316 µM
[26] = second compound 3.16 µM, first compound 0.1 µM
[27] = second compound 3.16 µM, first compound 0.316 µM
[28] = second compound 3.16 µM, first compound 1 µM
[29] = second compound 3.16 µM, first compound 3.16 µM
[30] = second compound 3.16 µM, first compound 10 µM
[31] = second compound 10 µM, first compound 0.0316 µM
[32] = second compound 10 µM, first compound 0.1 µM
[33] = second compound 10 µM, first compound 0.316 µM
[34] = second compound 10 µM, first compound 1 µM
[35] = second compound 10 µM, first compound 3.16 µM
[36] = second compound 10 µM, first compound 10 µM
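Note: spheroids exposed to compounds for seven days before readout.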

CC1COCCN1c1cc(-c2ccnn2C)c2ccnc(-c3ccn[nH]3)c2n1 (stereo unspecified) + Cc1cccc(N(C)C(=O)C2C(O)CCN2c2nc(C)cc(C(F)(F)F)c2C#N)c1
IC50 (second compound 0.0316 µM): 186 nM | IC50 (second compound 0.1 µM): 212 nM | IC50 (second compound 0.316 µM): 235 nM | IC50 (second compound 1 µM): 181 nM | IC50 (second compound 3.16 µM): 153 nM | IC50 (second compound 10 µM): 92.5 nM | viability, T/C [1]: 58.7% | viability, T/C [2]: 55.3% | viability, T/C [3]: 44% | viability, T/C [4]: 29.7% | viability, T/C [5]: 32.7% | viability, T/C [6]: 36.6% | viability, T/C [7]: 71.6% | viability, T/C [8]: 73.2% | viability, T/C [9]: 38.1% | viability, T/C [10]: 34.2% | viability, T/C [11]: 42.9% | viability, T/C [12]: 37.2% | viability, T/C [13]: 73.2% | viability, T/C [14]: 68.3% | viability, T/C [15]: 43.9% | viability, T/C [16]: 31.3% | viability, T/C [17]: 49.6% | viability, T/C [18]: 45.4% | viability, T/C [19]: 58.9% | viability, T/C [20]: 63.4% | viability, T/C [21]: 37.6% | viability, T/C [22]: 34.4% | viability, T/C [23]: 42.6% | viability, T/C [24]: 43.4% | viability, T/C [25]: 65.9% | viability, T/C [26]: 55.4% | viability, T/C [27]: 44.6% | viability, T/C [28]: 38.3% | viability, T/C [29]: 43% | viability, T/C [30]: 45.6% | viability, T/C [31]: 49.8% | viability, T/C [32]: 59.9% | viability, T/C [33]: 40% | viability, T/C [34]: 37.6% | viability, T/C [35]: 47.5% | viability, T/C [36]: 34.9%

COc1cccc2c1C(=O)c1c(O)c3c(c(O)c1C2=O)CC(O)(C(=O)CO)CC3OC1CC(N)C(O)C(C)O1 (stereo unspecified) + COC1C(OC(N)=O)C(O)C(Oc2ccc3c(O)c(NC(=O)c4ccc(O)c(CC=C(C)C)c4)c(=O)oc3c2C)OC1(C)C
IC50 (second compound 0.0316 µM): 334 nM | IC50 (second compound 0.1 µM): 216 nM | IC50 (second compound 0.316 µM): 326 nM | IC50 (second compound 1 µM): 226 nM | IC50 (second compound 3.16 µM): 320 nM | IC50 (second compound 10 µM): 263 nM | viability, T/C [1]: 73.1% | viability, T/C [2]: 80.2% | viability, T/C [3]: 51.4% | viability, T/C [4]: 8.39% | viability, T/C [5]: 0.35% | viability, T/C [6]: 0.47% | viability, T/C [7]: 64.2% | viability, T/C [8]: 70.5% | viability, T/C [9]: 41.3% | viability, T/C [10]: 5.48% | viability, T/C [11]: 0.39% | viability, T/C [12]: 0.29% | viability, T/C [13]: 79.8% | viability, T/C [14]: 76.2% | viability, T/C [15]: 51.3% | viability, T/C [16]: 8.79% | viability, T/C [17]: 0.37% | viability, T/C [18]: 0.44% | viability, T/C [19]: 70.9% | viability, T/C [20]: 58.8% | viability, T/C [21]: 45.6% | viability, T/C [22]: 6.1% | viability, T/C [23]: 0.31% | viability, T/C [24]: 0.43% | viability, T/C [25]: 68.3% | viability, T/C [26]: 68.2% | viability, T/C [27]: 50.3% | viability, T/C [28]: 9.54% | viability, T/C [29]: 0.51% | viability, T/C [30]: 0.49% | viability, T/C [31]: 75.1% | viability, T/C [32]: 80.3% | viability, T/C [33]: 43.5% | viability, T/C [34]: 10% | viability, T/C [35]: 0.39% | viability, T/C [36]: 0.49%

C=CCn1c(=O)c2cnc(Nc3ccc(N4CCN(C)CC4)cc3)nc2n1-c1cccc(C(C)(C)O)n1 + Nc1ccc(C#CCN(C(=O)Cc2ncc(C(F)(F)F)cc2C(F)(F)F)c2ccc(F)cc2)nn1
IC50 (second compound 0.0316 µM): > 1000 nM | IC50 (second compound 0.1 µM): > 1000 nM | IC50 (second compound 0.316 µM): > 1000 nM | IC50 (second compound 1 µM): > 1000 nM | IC50 (second compound 3.16 µM): > 1000 nM | IC50 (second compound 10 µM): > 1000 nM | viability, T/C (second compound 0.0316 µM, first compound 0.00316 µM): 105% | viability, T/C (second compound 0.0316 µM, first compound 0.01 µM): 98.7% | viability, T/C [1]: 91.4% | viability, T/C [2]: 105% | viability, T/C [3]: 88.8% | viability, T/C [4]: 74.7% | viability, T/C (second compound 0.1 µM, first compound 0.00316 µM): 105% | viability, T/C (second compound 0.1 µM, first compound 0.01 µM): 122% | viability, T/C [7]: 95.4% | viability, T/C [8]: 91.9% | viability, T/C [9]: 88.1% | viability, T/C [10]: 73.8% | viability, T/C (second compound 0.316 µM, first compound 0.00316 µM): 60.7% | viability, T/C (second compound 0.316 µM, first compound 0.01 µM): 95.8% | viability, T/C [13]: 94% | viability, T/C [14]: 88.7% | viability, T/C [15]: 103% | viability, T/C [16]: 75.4% | viability, T/C (second compound 1 µM, first compound 0.00316 µM): 96.5% | viability, T/C (second compound 1 µM, first compound 0.01 µM): 93.6% | viability, T/C [19]: 90.6% | viability, T/C [20]: 106% | viability, T/C [21]: 102% | viability, T/C [22]: 74.4% | viability, T/C (second compound 3.16 µM, first compound 0.00316 µM): 102% | viability, T/C (second compound 3.16 µM, first compound 0.01 µM): 93.2% | viability, T/C [25]: 74.9% | viability, T/C [26]: 101% | viability, T/C [27]: 68.8% | viability, T/C [28]: 75.9% | viability, T/C (second compound 10 µM, first compound 0.00316 µM): 113% | viability, T/C (second compound 10 µM, first compound 0.01 µM): 106% | viability, T/C [31]: 94% | viability, T/C [32]: 78.7% | viability, T/C [33]: 85.9% | viability, T/C [34]: 66.5%
